Assay results as given in patent US11198705B2, “Hybrid Amphotericin B derivatives with reduced toxicity” (priority 2018, dated 2021).
Converted amounts (≈) assume the structure as drawn. Read-outs that look alike come from different tables or passages of the source.

Key:
[1] = system: primary human renal epithelial cells (hREC)
Excerpt: As a complementary parallel first step in the screening funnel, the MTC's of all new derivatives will be evaluated against hREC using a WST-8 cell proliferation assay kit as previously described above. The MTC will be determined by calculating the mean of at least two biological replicates.

[2] = IV toxicity in rats (BUN, ALT/AST, mortality)
[3] = PK/PD properties in mice, rats and dogs (FIG. 14); type: in vivo; settings: rats, dogs
[4] = IV toxicity in mice (mortality); type: in vivo
Scedosporium prolificans = test: In vitro antifungal activity against Scedosporium prolificans; type: cell-based; settings: recalcitrant strain
Excerpt: (§1) Steinbach and Burke recently collaborated to further compare the activity of a series of AmBUreas (AmBAU, AmBMU, and AmBCU) with AmBisome®, C2′epiAmB, caspofungin, and voriconazole against a wide range of clinically relevant pathogens, including AmB-resistant Scedosporium strains (FIG. 11C).

candidiasis = test: Candidiasis mouse model, intravenous administration (EvoTec, FIG. 13); type: in vivo, mice
Method: (§2) To enable a head-to-head comparison with the AmB urea derivatives, AmB was delivered as a non-deoxycholate complex. […] These AmBUreas were also tested via intravenous administration in a similar model at EvoTec (Oxfordshire, UK), and their activities were compared directly with IV AmB-deoxycholate (Fungizone®) and liposomal AmB (AmBisome®) (FIG. 13).

[5] = system: four strains of clinically relevant Candida species and four challenging strains of A. fumigatus; test: In vitro antifungal activity, four Candida strains and four A. fumigatus strains (FIG. 11D); type: cell-based; settings: Aspergillus fumigatus, read-out: Mean MIC
Excerpt: (§3) Both AmBAU and AmBTACBU was further tested and compared to AmB against four strains of clinically relevant Candida species and four challenging strains of A. fumigatus (FIG. 11D).

human red blood cells = type: cell-based
invasive candidiasis = test: Murine model of invasive candidiasis, intraperitoneal AmBUreas (FIG. 12); type: in vivo, mice
Method: as §2

[6] = system: wide range of clinically relevant pathogens; test: In vitro antifungal activity, wide range of clinically relevant pathogens (FIG. 11C); type: cell-based; settings: across a wide range of pathogens
Excerpt: as §1

[7] = type: binding; settings: for binding to ergosterol: UV-Vis/PCA sponge-sterol titration
Excerpt: (§4) However, an alternative method was developed for reproducible formation of homogenous AmB and C2′epiAmB sterol sponge aggregates in vitro. Using these preparations, a quantitative UV-Vis and Principle Component (PCA) based assay for determining the apparent KDS for the binding of AmB and C2′epiAmB to ergosterol and cholesterol (FIGS. 5A-D) was developed.
(§5) Biophysical studies support the conclusion that different capacities to bind cholesterol underlie these striking differences in toxicity for the AmBUreas versus C2′epiAmB (FIG. 15). Isothermal titration calorimetry is unable to distinguish between cholesterol binding in these two series. However, a more sensitive and quantitative UV-Vis/PCA based sponge-sterol titration experiments described above (see Example 1) was employed to quantify the binding of a representative AmB urea (AmBAU) to ergosterol and cholesterol. […] It was reasoned that the lack of cholesterol binding in C2′epiAmB to a ligand-selective allosteric effect was caused by epimerization of the C2′stereocenter (see Example 1), and thus predict that the biophysical effects associated with C2′-epimerization should be transposable to other AmB derivatives.

[8] = UV-Vis/PCA sterol sponge titration, cholesterol; type: binding
Excerpt: as §4, §5

[9] = system: A. fumigatus 91, A. fumigatus 1100; test: MIC against A. fumigatus 91 and A. fumigatus 1100; type: cell-based
Excerpt: The results with C2′epiAmBAU strongly support the prediction that C16 modifications will show improved potency compared to C2′epiAmB. […] Thus, it is expected that hybridizations of C2′epiAmB with other urea side chains will yield similar increases in potency without any mammalian toxicity. If this proves not to be the case, other classes of C16 modifications that also increase potency will be pursed. […] Alternative modifications may be pursed at the mycosamine appendage that the modelling predicts should similarly eliminate the water-bridged C2′OH to C13OH hydrogen bond, e.g., C2′deoxygenation, C2′-halodeoxygenation, or C2′-methyldeoxygenation, and thus eliminate cholesterol binding (see FIGS. 3A and 3B). This study anticipates high doses of non-toxic C2′epiAmBUreas will yield a significant reduction in fungal burden and therefore an increase in survival in QD dosing efficacy studies relative to AmB-deoxycholate (Fungizone®), AmBisome®, C2′epiAmB, voriconazole, and caspofungin.

[10] = Isothermal titration calorimetry (ITC) sterol binding, ergosterol; settings: within detection limits of ITC
Excerpt: (§6) This key discovery opened a path to the rational development of a non-toxic AmB variant. To probe its predicted role in sterol binding, the hydroxyl group was synthetically deleted at the C2′ position on the mycosamine appendage. […] Consistent with the sterol sponge model, this derivative retained good activity against yeast but, most importantly, was nontoxic to human red blood cells and primary (hREC) (FIG. 2B).
(§7) A practical 11-step synthesis of C2′epiAmB using a frontier site-selective acylation method was developed (FIG. 4). Wilcock, B. C. et al., Nat Chem 2012, 4 (12), 996-1003; Uno, B. E. A synthesis enabled understanding of Amphotericin B leading to derivatives with improved therapeutic indices. University of Illinois at Urbana-Champaign, 2014. The sterol binding and cell killing activities was then determined.

[11] = Isothermal titration calorimetry (ITC) sterol binding, cholesterol; settings: within detection limits of ITC
Excerpt: as §6, §7

yeast = test: Activity against yeast / cell killing (FIG. 2); type: cell-based
Excerpt: as §6, §7

[12] = system: panel of clinical isolates; test: In vitro antifungal activity, panel of clinical isolates (FIG. 11B); type: cell-based; settings: read-out: Mean MIC
Excerpt: Burke, Andes, and Lindquist reported in 2015 a series of AmB derivatives in which the C16 acid is replaced with a urea motif via a scalable 3-step synthesis from AmB (FIG. 11A). Davis, S. A., et al., Nat Chem Biol 2015, 11 (7), 481-7. AmBUreas were studied at REVOLUTION Medicines, a biotech company for which Burke is a Founder and Consultant and Steinbach served on the Clinical Advisory Board.
as §3

C. albicans [13] = test: MIC against C. albicans with and without pre-complexation with ergosterol; type: cell-based; settings: sponge pre-complexed with ergosterol
Excerpt: Anderson, T. M. et al., Nat Chem Biol 2014, 10 (5), 400-6. […] Davis, S. A., et al., Nat Chem Biol 2015, 11 (7), 481-7. To test whether C2′epiAmB primarily kills cells via the same sterol sponge mechanism, the C2′epiAmB sponge was similarly pre-complexed with ergosterol (FIG. 9). […] Thus, C2′epiAmB similarly kills yeast primarily via sterol binding, and, by extension, the new compounds targeted in this application are expected to have a similar barrier to fungal resistance that has been observed for the past 50+ years with AmB.

C. albicans [14] = test: Murine model of invasive candidiasis, single IP injection (FIG. 10); type: in vivo, neutropenic ICR/Swiss mice
Excerpt: Andes, D. et al., Antimicrobial agents and chemotherapy 2001, 45 (3), 922-6. […] Wiederhold, N. P. et al., Antimicrobial agents and chemotherapy 2006, 50 (2), 469-73.

[15] = system: clinically relevant invasive molds; test: In vitro antifungal activity, panel of clinically relevant invasive molds (FIG. 8C); type: cell-based; settings: many strains, including pan-azole resistant strain F14196
[16] = system: Candida and Aspergillus clinical isolates; test: In vitro antifungal activity, Candida and Aspergillus clinical isolates (Evotec); type: cell-based; settings: many Candida and several Aspergillus strains
[17] = system: series of important pathogens (Candida and Aspergillus strains); test: In vitro antifungal activity of C2′epiAmBAU hybrid vs AmB, C2′epiAmB and AmBAU (FIG. 18); type: cell-based; settings: A. fumigatus 91, A. fumigatus 1163, and A. fumigatus 1100
Excerpt: In a key result, synthesis on small scale was accomplished on the first targeted hybrid derivative, C2′epiAmBAU, as per FIG. 17 confirming the feasibility of the route to these natural product analogs. The initial biological analysis of this first C2′epiAmBUrea derivative was very encouraging since a substantial increase in antifungal potency for C2′epiAmBAU relative to C2′epiAmB was observed (FIG. 18).

[18] = system: 40 Aspergillus clinical isolates, including azole-resistant A. fumigatus, A. flavus, and A. terreus; test: Antifungal testing, extended panel of 40 Aspergillus clinical isolates (Fungus Testing Laboratory, UT-San Antonio); type: cell-based
A. fumigatus = test: In vitro antifungal activity, A. fumigatus strains (Evotec); type: cell-based

## C[C@@H]1[C@H](O)[C@@H](C)/C=C/C=C/C=C/C=C/C=C/C=C/C=C/C(OC2O[C@H](C)[C@@H](O)[C@H](N)[C@@H]2O)C[C@@H]2O[C@](O)(C[C@@H](O)C[C@@H](O)[C@H](O)CC[C@@H](O)C[C@@H](O)CC(=O)O[C@H]1C)C[C@H](O)[C@H]2NC(=O)NCCN (stereo partly drawn) [AmBAU]
[1]
  minimum toxic concentration (MTC) against primary hRECs: 11.3 µM
[2]; 6 mg/kg
  toxicity in rats: significant toxicity
[3]
  PK/PD properties: favorable PK/PD properties
[4]; IV, mice
  dose at which death was observed: 32 mg/kg
Scedosporium prolificans
  activity against Scedosporium prolificans: active
candidiasis; 1 mg/kg, within the limits of assay detection
  kidney fungal burden: sterilization in multiple mice
candidiasis; 16 mg/kg
  kidney fungal burden: complete sterilization
[5]; FIG. 11D, four Candida and four A. fumigatus strains
  MIC: 0.5 µM (≈ 0.491 µg/mL)
Human red blood cells; highest concentrations tested
  concentration failing to fully lyse red blood cells: > 500 µM
Invasive candidiasis; administered intraperitoneally
  efficacy: exceptionally effective
[6]
  antifungal potency: excellent potency
[7]
  binding to ergosterol: confirmed to bind
[8]
  binding to cholesterol: confirmed to bind

## COC(=O)C1C(O)CC2(O)CC(O)CC(O)C(O)CCC(O)CC(O)CC(=O)OC(C)C(C)C(O)C(C)C=CC=CC=CC=CC=CC=CC=CC(OC3OC(C)C(O)C(N)C3O)CC1O2 (stereo not drawn) [C2′epiAmBME, C2′epiAmB C16 methyl ester]
[9]; A. fumigatus 91
  MIC: 4 µM (≈ 3.75 µg/mL)
[9]; A. fumigatus 1100
  MIC: 4 µM (≈ 3.75 µg/mL)

## CNC(=O)N[C@H]1[C@@H]2CC(OC3O[C@H](C)[C@@H](O)[C@H](N)[C@@H]3O)/C=C/C=C/C=C/C=C/C=C/C=C/C=C/[C@H](C)[C@@H](O)[C@@H](C)[C@H](C)OC(=O)C[C@H](O)C[C@H](O)CC[C@@H](O)[C@H](O)C[C@H](O)C[C@](O)(C[C@@H]1O)O2 (stereo partly drawn) [AmBMU]
[1]; human
  minimum toxic concentration (MTC) against primary hRECs: 44.4 µM
[2]; 6 mg/kg
  toxicity in rats: significant toxicity
[8]
  binding to cholesterol: retains the capacity to bind cholesterol

## CC1C=CC=CC=CC=CC=CC=CC=CC(OC2CC(N)C(O)C(C)O2)CC2OC(O)(CC(O)CC(O)C(O)CCC(O)CC(O)CC(=O)OC(C)C(C)C1O)CC(O)C2C(=O)O (stereo not drawn) [C2′deOAmB, reference compound]
[1]
  toxicity to primary hREC: nontoxic
[10]
  binding of ergosterol by ITC: bind ergosterol
[11]
  binding of cholesterol by ITC: not cholesterol
yeast
  activity against yeast: good activity
Human red blood cells
  toxicity to human red blood cells: nontoxic

## C[C@@H]1[C@H](O)[C@@H](C)/C=C/C=C/C=C/C=C/C=C/C=C/C=C/[C@H](O[C@@H]2O[C@H](C)[C@@H](O)[C@H](N)[C@@H]2O)C[C@@H]2O[C@](O)(C[C@@H](O)C[C@@H](O)[C@H](O)CC[C@@H](O)C[C@@H](O)CC(=O)O[C@H]1C)C[C@H](O)[C@H]2C(=O)O [AmB, Amphotericin B]
[1]; human
  minimum toxic concentration (MTC) against primary hRECs: 2.4 µM
  minimum toxic concentration (MTC) in hREC, preliminary analysis: 2 to 4 µM
[12]
  MIC: 1.23 µM (≈ 1.14 µg/mL)
[5]
  MIC: 1.33 µM (≈ 1.23 µg/mL)
C. albicans [13]
  change in potency upon ergosterol pre-complexation: same reduction in potency
Invasive candidiasis; AmB delivered as a non-deoxycholate complex
  dose-response: atypical lack of dose-response
[7]
  Kd: 120 nM

## C[C@@H]1[C@H](O)[C@@H](C)/C=C/C=C/C=C/C=C/C=C/C=C/C=C/[C@H](O[C@@H]2O[C@H](C)[C@@H](O)[C@H](N)[C@H]2O)C[C@@H]2O[C@](O)(C[C@@H](O)C[C@@H](O)[C@H](O)CC[C@@H](O)C[C@@H](O)CC(=O)O[C@H]1C)C[C@H](O)[C@H]2C(=O)O [C2′epiAmB]
[9]; A. fumigatus 91
  MIC: > 64 µM
[9]; A. fumigatus 1100
  MIC: 32 µM (≈ 29.6 µg/mL)
[1]
  minimum toxic concentration (MTC) against primary hRECs: > 80 µM
  toxicity to primary hREC: non-toxic
[10]
  binding of ergosterol by ITC: bind ergosterol
[2]; 17.5 mg/kg (highest tested dose)
  toxicity in rats: no such toxicity
[2]; up to the highest dose tested
  toxicity to rats: non-toxic
C. albicans [14]; 16 mg/kg
  fungal burden: outstanding reductions in fungal burden
C. albicans [14]; deoxycholate complex, 1, 4, 8, or 16 mg/kg
  efficacy: dose-dependent efficacy
[4]; IV, mice, 128 mg/kg (highest dose tested)
  mortality: survived
[4]; up to the highest dose tested
  toxicity to mice: non-toxic
[15]
  antifungal potency: good antifungal potency
[11]
  binding of cholesterol by ITC: not (detectably) cholesterol
[16]
  in vitro antifungal activity: good activity
yeast; fungal vs human cells
  cell killing activities: kill fungal but not human cells
[17]
  resistance of strains to compound: complete or nearly complete resistance
Human red blood cells
  toxicity to human red blood cells: non-toxic
C. albicans [13]
  change in potency upon ergosterol pre-complexation: same reduction in potency
[18]; average across all 40 strains
  average potency relative to AmB (less potent): 5.6 fold
[18]; range over 40 Aspergillus clinical isolates
  potency relative to AmB (less potent): 2-16 times
A. fumigatus; A. fumigatus AF91
  potency relative to AmB (less potent): > 32 times
A. fumigatus; A. fumigatus AF293, A1163, and ATC204305
  potency relative to AmB (less potent): 4 fold
[7]
  binding to ergosterol: retained binding
[8]
  binding to cholesterol: no detectable binding
